PubChem BioAssay AID330 (DTP/NCI, 2004)
Inconclusive results and toxic doses are left out. The calls were made as follows: active = survival T/C of 150% or more; inactive = T/C below 125% in these data.

Tested on: P388 leukemia ip, CD2F1 mice, survival T/C
Test: NCI In Vivo Anticancer Drug Screen. Data for tumor model P388 Leukemia (intraperitoneal) in CD2F1 (CDF1) mice
Conditions: endpoint: median survival time, higher = longer survival
Method in brief: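 Mice carrying the transplanted tumor received test compound or vehicle. Survival was recorded in each group, and the value is the treated-group measurement divided by that of the vehicle-treated control group.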

Measured: T/C

O=C1NC(c2cccc3ccccc23)Nc2ccccc21 (configuration not stated)
active: dose: 16.0 mg/kg/injection, schedule: Q01DX009 (ip), vehicle: Klucel (hydroxypropylcellulose) (HPC) 155 % of control | dose: 16.0 mg/kg/injection, schedule: Q03HX024 (ip), vehicle: Klucel (hydroxypropylcellulose) (HPC) 174 % of control | dose: 32.0 mg/kg/injection, schedule: Q01DX009 (ip), vehicle: Klucel (hydroxypropylcellulose) (HPC) 177 % of control | dose: 32.0 mg/kg/injection, schedule: Q03HX008 (ip), vehicle: Klucel (hydroxypropylcellulose) (HPC) 173 % of control | dose: 32.0 mg/kg/injection, schedule: Q03HX016 (ip), vehicle: Klucel (hydroxypropylcellulose) (HPC) 200 % of control | dose: 32.0 mg/kg/injection, schedule: Q03HX024 (oral), vehicle: other 168 % of control | dose: 64.0 mg/kg/injection, schedule: Q01DX009 (ip), vehicle: Klucel (hydroxypropylcellulose) (HPC) 194 % of control | dose: 256.0 mg/kg/injection, schedule: Q04DX003 (ip), vehicle: Klucel (hydroxypropylcellulose) (HPC) 168 % of control | dose: 512.0 mg/kg/injection, schedule: Q08DX002 (ip), vehicle: Klucel (hydroxypropylcellulose) (HPC) 185 % of control
inactive: dose: 8.0 mg/kg/injection, schedule: Q03HX008 (ip), vehicle: Klucel (hydroxypropylcellulose) (HPC) 118 % of control | dose: 8.0 mg/kg/injection, schedule: Q03HX008 (ip), vehicle: other 109 % of control | dose: 8.0 mg/kg/injection, schedule: Q03HX008 (oral), vehicle: Klucel (hydroxypropylcellulose) (HPC) 99 % of control | dose: 8.0 mg/kg/injection, schedule: Q03HX008 (oral), vehicle: other 100 % of control | dose: 8.0 mg/kg/injection, schedule: Q03HX016 (ip), vehicle: Klucel (hydroxypropylcellulose) (HPC) 124 % of control | dose: 8.0 mg/kg/injection, schedule: Q03HX016 (ip), vehicle: other 101 % of control | dose: 8.0 mg/kg/injection, schedule: Q03HX016 (oral), vehicle: Klucel (hydroxypropylcellulose) (HPC) 100 % of control | dose: 8.0 mg/kg/injection, schedule: Q03HX016 (oral), vehicle: other 114 % of control | dose: 8.0 mg/kg/injection, schedule: Q03HX024 (ip), vehicle: other 124 % of control | dose: 8.0 mg/kg/injection, schedule: Q03HX024 (oral), vehicle: Klucel (hydroxypropylcellulose) (HPC) 101 % of control | dose: 8.0 mg/kg/injection, schedule: Q03HX024 (oral), vehicle: other 108 % of control | dose: 16.0 mg/kg/injection, schedule: Q01DX009 (ip), vehicle: other 108 % of control | dose: 16.0 mg/kg/injection, schedule: Q01DX009 (oral), vehicle: Klucel (hydroxypropylcellulose) (HPC) 100 % of control | dose: 16.0 mg/kg/injection, schedule: Q01DX009 (oral), vehicle: other 100 % of control | dose: 16.0 mg/kg/injection, schedule: Q01DX009 (sc), vehicle: Klucel (hydroxypropylcellulose) (HPC) 106 % of control | dose: 16.0 mg/kg/injection, schedule: Q01DX009 (sc), vehicle: other 94 % of control | dose: 16.0 mg/kg/injection, schedule: Q03HX008 (ip), vehicle: other 117 % of control | dose: 16.0 mg/kg/injection, schedule: Q03HX008 (oral), vehicle: Klucel (hydroxypropylcellulose) (HPC) 95 % of control | dose: 16.0 mg/kg/injection, schedule: Q03HX008 (oral), vehicle: other 104 % of control | dose: 16.0 mg/kg/injection, schedule: Q03HX016 (ip), vehicle: other 123 % of control | dose: 16.0 mg/kg/injection, schedule: Q03HX016 (oral), vehicle: Klucel (hydroxypropylcellulose) (HPC) 102 % of control | dose: 16.0 mg/kg/injection, schedule: Q03HX016 (oral), vehicle: other 115 % of control | dose: 16.0 mg/kg/injection, schedule: Q03HX024 (oral), vehicle: Klucel (hydroxypropylcellulose) (HPC) 102 % of control | dose: 32.0 mg/kg/injection, schedule: Q01DX009 (ip), vehicle: other 102 % of control | dose: 32.0 mg/kg/injection, schedule: Q01DX009 (oral), vehicle: Klucel (hydroxypropylcellulose) (HPC) 102 % of control | dose: 32.0 mg/kg/injection, schedule: Q01DX009 (oral), vehicle: other 107 % of control | dose: 32.0 mg/kg/injection, schedule: Q01DX009 (sc), vehicle: Klucel (hydroxypropylcellulose) (HPC) 114 % of control | dose: 32.0 mg/kg/injection, schedule: Q01DX009 (sc), vehicle: other 117 % of control | dose: 32.0 mg/kg/injection, schedule: Q03HX008 (oral), vehicle: Klucel (hydroxypropylcellulose) (HPC) 99 % of control | dose: 32.0 mg/kg/injection, schedule: Q03HX008 (oral), vehicle: other 122 % of control | dose: 32.0 mg/kg/injection, schedule: Q03HX016 (oral), vehicle: Klucel (hydroxypropylcellulose) (HPC) 110 % of control | dose: 32.0 mg/kg/injection, schedule: Q03HX024 (oral), vehicle: Klucel (hydroxypropylcellulose) (HPC) 109 % of control | dose: 64.0 mg/kg/injection, schedule: Q01DX001 (ip), vehicle: Klucel (hydroxypropylcellulose) (HPC) 113 % of control | dose: 64.0 mg/kg/injection, schedule: Q01DX001 (ip), vehicle: other 99 % of control | dose: 64.0 mg/kg/injection, schedule: Q01DX001 (oral), vehicle: Klucel (hydroxypropylcellulose) (HPC) 100 % of control | dose: 64.0 mg/kg/injection, schedule: Q01DX001 (oral), vehicle: other 94 % of control | dose: 64.0 mg/kg/injection, schedule: Q01DX009 (ip), vehicle: other 120 % of control | dose: 64.0 mg/kg/injection, schedule: Q01DX009 (oral), vehicle: Klucel (hydroxypropylcellulose) (HPC) 108 % of control | dose: 64.0 mg/kg/injection, schedule: Q01DX009 (oral), vehicle: other 118 % of control | dose: 64.0 mg/kg/injection, schedule: Q03HX008 (oral), vehicle: Klucel (hydroxypropylcellulose) (HPC) 108 % of control | dose: 64.0 mg/kg/injection, schedule: Q03HX016 (oral), vehicle: Klucel (hydroxypropylcellulose) (HPC) 116 % of control | dose: 64.0 mg/kg/injection, schedule: Q03HX024 (oral), vehicle: Klucel (hydroxypropylcellulose) (HPC) 119 % of control | dose: 64.0 mg/kg/injection, schedule: Q04DX003 (ip), vehicle: Klucel (hydroxypropylcellulose) (HPC) 118 % of control | dose: 64.0 mg/kg/injection, schedule: Q04DX003 (ip), vehicle: other 91 % of control | dose: 64.0 mg/kg/injection, schedule: Q04DX003 (oral), vehicle: Klucel (hydroxypropylcellulose) (HPC) 100 % of control | dose: 64.0 mg/kg/injection, schedule: Q04DX003 (oral), vehicle: other 117 % of control | dose: 64.0 mg/kg/injection, schedule: Q04DX003 (sc), vehicle: Klucel (hydroxypropylcellulose) (HPC) 113 % of control | dose: 64.0 mg/kg/injection, schedule: Q04DX003 (sc), vehicle: other 107 % of control | dose: 64.0 mg/kg/injection, schedule: Q08DX002 (ip), vehicle: Klucel (hydroxypropylcellulose) (HPC) 118 % of control | dose: 64.0 mg/kg/injection, schedule: Q08DX002 (ip), vehicle: other 100 % of control | dose: 64.0 mg/kg/injection, schedule: Q08DX002 (oral), vehicle: Klucel (hydroxypropylcellulose) (HPC) 102 % of control | dose: 64.0 mg/kg/injection, schedule: Q08DX002 (oral), vehicle: other 104 % of control | dose: 128.0 mg/kg/injection, schedule: Q01DX001 (ip), vehicle: Klucel (hydroxypropylcellulose) (HPC) 121 % of control | dose: 128.0 mg/kg/injection, schedule: Q01DX001 (ip), vehicle: other 104 % of control | dose: 128.0 mg/kg/injection, schedule: Q01DX001 (oral), vehicle: Klucel (hydroxypropylcellulose) (HPC) 99 % of control | dose: 128.0 mg/kg/injection, schedule: Q01DX001 (oral), vehicle: other 108 % of control | dose: 128.0 mg/kg/injection, schedule: Q01DX009 (oral), vehicle: Klucel (hydroxypropylcellulose) (HPC) 109 % of control | dose: 128.0 mg/kg/injection, schedule: Q03HX008 (oral), vehicle: Klucel (hydroxypropylcellulose) (HPC) 110 % of control | dose: 128.0 mg/kg/injection, schedule: Q03HX016 (oral), vehicle: Klucel (hydroxypropylcellulose) (HPC) 122 % of control | dose: 128.0 mg/kg/injection, schedule: Q04DX003 (ip), vehicle: other 109 % of control | dose: 128.0 mg/kg/injection, schedule: Q04DX003 (oral), vehicle: Klucel (hydroxypropylcellulose) (HPC) 105 % of control | dose: 128.0 mg/kg/injection, schedule: Q04DX003 (oral), vehicle: other 122 % of control | dose: 128.0 mg/kg/injection, schedule: Q04DX003 (sc), vehicle: Klucel (hydroxypropylcellulose) (HPC) 115 % of control | dose: 128.0 mg/kg/injection, schedule: Q04DX003 (sc), vehicle: other 114 % of control | dose: 128.0 mg/kg/injection, schedule: Q08DX002 (ip), vehicle: other 94 % of control | dose: 128.0 mg/kg/injection, schedule: Q08DX002 (oral), vehicle: Klucel (hydroxypropylcellulose) (HPC) 106 % of control | dose: 256.0 mg/kg/injection, schedule: Q01DX001 (ip), vehicle: other 105 % of control | dose: 256.0 mg/kg/injection, schedule: Q01DX001 (oral), vehicle: Klucel (hydroxypropylcellulose) (HPC) 101 % of control | dose: 256.0 mg/kg/injection, schedule: Q01DX009 (oral), vehicle: Klucel (hydroxypropylcellulose) (HPC) 116 % of control | dose: 256.0 mg/kg/injection, schedule: Q01DX009 (sc), vehicle: Klucel (hydroxypropylcellulose) (HPC) 91 % of control | dose: 256.0 mg/kg/injection, schedule: Q04DX003 (ip), vehicle: other 109 % of control | dose: 256.0 mg/kg/injection, schedule: Q04DX003 (oral), vehicle: Klucel (hydroxypropylcellulose) (HPC) 107 % of control | dose: 256.0 mg/kg/injection, schedule: Q04DX003 (oral), vehicle: other 95 % of control | dose: 256.0 mg/kg/injection, schedule: Q04DX003 (sc), vehicle: Klucel (hydroxypropylcellulose) (HPC) 122 % of control | dose: 256.0 mg/kg/injection, schedule: Q08DX002 (ip), vehicle: other 108 % of control | dose: 256.0 mg/kg/injection, schedule: Q08DX002 (oral), vehicle: Klucel (hydroxypropylcellulose) (HPC) 106 % of control | dose: 512.0 mg/kg/injection, schedule: Q01DX001 (oral), vehicle: Klucel (hydroxypropylcellulose) (HPC) 102 % of control | dose: 512.0 mg/kg/injection, schedule: Q04DX003 (oral), vehicle: Klucel (hydroxypropylcellulose) (HPC) 116 % of control | dose: 512.0 mg/kg/injection, schedule: Q08DX002 (oral), vehicle: Klucel (hydroxypropylcellulose) (HPC) 108 % of control | dose: 1024.0 mg/kg/injection, schedule: Q01DX001 (oral), vehicle: Klucel (hydroxypropylcellulose) (HPC) 101 % of control | dose: 1024.0 mg/kg/injection, schedule: Q04DX003 (oral), vehicle: Klucel (hydroxypropylcellulose) (HPC) 106 % of control | dose: 1024.0 mg/kg/injection, schedule: Q04DX003 (sc), vehicle: Klucel (hydroxypropylcellulose) (HPC) 123 % of control | dose: 1024.0 mg/kg/injection, schedule: Q08DX002 (oral), vehicle: Klucel (hydroxypropylcellulose) (HPC) 115 % of control
